According to patent US20080103205A1, “Pesticidal compositions and methods of use” (priority 2006, published 2008):
Several values for one entry are separate records, joined by “and”; a condition that tells them apart may be missing. Identical values can stand only once. Like-named read-outs stand apart in the source and are kept apart here.

What was measured:
H. bacteriophora = experiment: Initial petri dish toxicity assay / preliminary studies, H. bacteriophora; assay type: in vivo, Heterorhabditis bacteriophora; details: initial petri dish assays / preliminary studies
Excerpt: (§1) The stilbene nucleus is a simple chemical scaffold, and excellent gains in potency can be envisioned from appropriate chemical modification. In addition, other compounds having a similar mode of action have been described, including NPPB, IAA-94, and 9-AC (FIGS. 1-3). This Example 1 describes further toxicity studies with these compounds.
This broad cross resistance supports a role for AT blockers in the action of these compounds.

[1] = test system: European corn borer (Ostrinia nubilalis); experiment: Diet surface test on European corn borer larvae (2nd instar); assay type: in vivo; details: for mortality at 6.25 ppm / mortality at 12.5 ppm / mortality at 25 ppm / mortality at 50 ppm: Ostrinia nubilalis, read-out: % Mortality
Procedure: Concentrations of 6.25, 12.5, 25, or 50 ppm AT blocker were prepared in 95% ethyl alcohol (EtOH). 95% EtOH alone served as control. European corn borer (ECB) diet prepared from the powdered diet supplied by French Agricultural Research, Inc. Diet (1-2 ml) was poured into small cups and allowed to cool to room temperature. Test solution (100 ul) was placed onto the diet surface and allowed to evaporate the solvent. Each concentration of chemical had 2 sets of 10 cups each. One late 2nd instar larva was placed in each cup and covered with lid having perforations for aeration. Cups were placed in an incubator for 7 days at 25±1° C. and 70±5% RH. After seven days, the weight of each larva was taken and any mortality was recorded. Then, the surviving larvae were transferred to fresh diet cups holding sufficient diet (5-6 ml) without chemicals and incubated at 25±1° C. and 70±5% RH until pupation. Weights of larvae were taken 14 days after transferring to fresh diet (21 days after start of treatment). Finally, the number of days until pupation was recorded.
Anion transporters caused larval death and a reduction in weight gain within 7 days exposure. The effect persisted for 2 weeks time on untreated diet, but total time to pupation was relatively unaffected.

M. incognita = experiment: Initial petri dish toxicity assay, M. incognita; assay type: in vivo; details: Meloidogyne incognita; 100 ppm for 24 hr
Excerpt: as §1

Caenorhabditis elegans = experiment: Toxicity test, adult Caenorhabditis elegans, 96 well micro plate; assay type: in vivo; details: for mortality at 50 ppm / mortality at 100 ppm / mortality at 200 ppm / mortality at 300 ppm / mortality at 400 ppm: Caenorhabditis elegans
Procedure: Methodology: Toxicity tests were conducted using J2 juveniles of Meloidogyne incognita adult Caenorhabditis elegans collected from nematode-infested tomato plant roots and culture Petri plates, respectively. Test concentrations of 50, 100, 200, 300, or 400 ppm were prepared in 0.2% dimethylsulfoxide (DMSO) in tap water. Aliquots (300 microliters (ul)) were applied to a 96 well micro plate and a 20 ul aqueous solution containing nematodes was added. The number of nematodes in 20 ul ranged from 17 to 30. Micro plates were sealed with Parafilm™ and incubated at room temperature. Similar tests conducted with 0.2% DMSO in tap water served as controls. Nematode mortality was checked at 24, 48, 72, 120, and 168 hr after incubation. Nematodes that were motionless for 30 sec when observed under a stereomicroscope were considered paralyzed and included in mortality counts. Each concentration was replicated five times and mean percent mortality was calculated after correcting for control mortality using Abbott's formula.
Data Analysis: Mortality data were analyzed using PROC PROBIT (SAS) program and LC50 values were estimated.

Drosophila melanogaster = experiment: Toxicity against adult Drosophila melanogaster, sugar solution feeding; assay type: in vivo
Procedure: Toxicity tests were conducted using mixed sex adults of D. melanogaster maintained on artificial diet in the department of entomology, Virginia Tech. Test concentrations of 6.25, 12.5, 25, 50 or 100 ppm were prepared in 0.2% dimethyl sulfoxide (DMSO) for DIDS, 9-AC, NPPB, and IAA-94. The above final concentrations were obtained after mixing them in 10 ml of 10% sugar solution. Similar preparations with 0.2% DMSO alone served as controls. One end of a cotton wick was dipped in 0.5 ml of sugar solution and placed on the glass vial containing 10 adult flies of mixed sex. Each concentration of test chemical had 5 replications. Mortality counts of flies were taken 24, 48, and 72 hrs after treatment. Insects without movement upon probing were considered dead. LC50 values and confidence intervals for each chemical were estimated using POLO PLUS software program. The data provided in Tables 3-A and 3-B below confirm that AT blockers are toxic to insects in acute exposures.

[2] = 6.25 ppm, 21 days after feeding
[3] = 12.5 ppm, 21 days after feeding
[4] = 50 ppm, 7 days after feeding, 10 larvae treated
[5] = 50 ppm, 21 days after feeding, 10 larvae treated
[6] = 24 hr, read-out: Corrected Mortality (%)
[7] = 48 hr, read-out: Corrected Mortality (%)
[8] = 72 hr, read-out: Corrected Mortality (%)
[9] = 120 hr, read-out: Corrected Mortality (%)
[10] = 120 hr, read-out: Mortality (%)
[11] = 168 hr, read-out: Corrected Mortality (%)
[12] = 168 hr, read-out: Mortality (%)

O=S(=O)(O)c1cc(N=C=S)ccc1/C=C/c1ccc(N=C=S)cc1S(=O)(=O)O [DIDS, trans-4,4′-diisothiocyanatostilbene-2,2′-disulfonic acid, reference compound]
paralytic/lethal effect, sensitivity (H. bacteriophora): less sensitive
Days for pupation ([1]; 6.25 ppm): 24.6 days and 25.0 days
% wt reduction to control ([1]; 6.25 ppm, 7 days after feeding): 12.76% and 9.12%
Mean wt of survived larvae, mg ([1]; 6.25 ppm, 7 days after feeding): 41.56 (10) mg and 44.84 (10) mg
No. dead ([1]; 6.25 ppm, 7 days after feeding, 10 larvae): 0
% wt reduction to control [1, 2]: 5.69% and 7.74%
Mean wt of survived larvae, mg [1, 2]: 156.66 (10) mg and 135.14 (10) mg
No. dead ([1]; 6.25 ppm, 21 days after feeding, 10 larvae): 0
Days for pupation ([1]; 12.5 ppm): 25.2 days and 25.8 days
% wt reduction to control ([1]; 12.5 ppm, 7 days after feeding): 39.67% and 36.72%
Mean wt of survived larvae, mg ([1]; 12.5 ppm, 7 days after feeding): 28.74 (10) mg and 31.22 (10) mg
No. dead ([1]; 12.5 ppm, 7 days after feeding, 10 larvae): 0
% wt reduction to control [1, 3]: 32.84% and 33.04%
Mean wt of survived larvae, mg [1, 3]: 111.56 (10) mg and 98.08 (10) mg
No. dead ([1]; 12.5 ppm, 21 days after feeding, 10 larvae): 0
Days for pupation ([1]; 25 ppm): 27.25 days and 27.0 days
% wt reduction to control ([1]; 25 ppm, 7 days after feeding): 66.06% and 65.00%
Mean wt of survived larvae, mg ([1]; 25 ppm, 7 days after feeding): 16.17 (8) mg and 17.26 (6) mg
No. dead ([1]; 25 ppm, 7 days after feeding, 10 larvae): 2 and 4
% wt reduction to control ([1]; 25 ppm, 21 days after feeding): 70.08% and 70.62%
Mean wt of survived larvae, mg ([1]; 25 ppm, 21 days after feeding): 49.70 (6) mg and 43.03 (6) mg
No. dead ([1]; 25 ppm, 21 days after feeding, 10 larvae): 4
Days for pupation ([1]; 50 ppm in (Hepes)): 24.6 days
Mean wt of survived larvae, mg ([1]; 50 ppm in (Hepes), 7 days after feeding): 43.33 mg
No. dead ([1]; 50 ppm in (Hepes), 7 days after feeding, 10 larvae): 0
Mean wt of survived larvae, mg ([1]; 50 ppm in (Hepes), 21 days after feeding): 137.36 mg
No. dead ([1]; 50 ppm in (Hepes), 21 days after feeding, 10 larvae): 0
% wt reduction to control ([1]; 50 ppm, 7 days after feeding): 87.93% and 92.70%
Mean wt of survived larvae ([1]; 50 ppm, 7 days after feeding): 43.33 mg
Mean wt of survived larvae, mg ([1]; 50 ppm, 7 days after feeding): 5.75 (4) mg and 3.60 (1) mg
No. dead ([1]; 50 ppm, 7 days after feeding, 10 larvae): 6 and 8
# surviving [1, 4]: 10
No. dead [1, 4]: 0
% wt reduction to control ([1]; 50 ppm, 21 days after feeding): 0%
Mean wt of survived larvae ([1]; 50 ppm, 21 days after feeding): 137.36 mg
Mean wt of survived larvae, mg ([1]; 50 ppm, 21 days after feeding): 0 mg
No. dead ([1]; 50 ppm, 21 days after feeding, 10 larvae): 10
# surviving [1, 5]: 10
No. dead [1, 5]: 0
mortality at 6.25 ppm ([1]; 168 h, 6.25 ppm, 7 days after feeding): 0%
mortality at 12.5 ppm ([1]; 168 h, 12.5 ppm, 7 days after feeding): 0%
mortality at 25 ppm ([1]; 168 h, 25 ppm, 7 days after feeding): 20%
mortality at 50 ppm ([1]; 168 h, 50 ppm in (Hepes), 7 days after feeding): 0%
mortality at 6.25 ppm ([1]; 504 h, 6.25 ppm, 21 days after feeding): 0%
mortality at 12.5 ppm ([1]; 504 h, 12.5 ppm, 21 days after feeding): 0%
mortality at 25 ppm ([1]; 504 h, 25 ppm, 21 days after feeding): 40%
mortality at 50 ppm ([1]; 504 h, 50 ppm in (Hepes), 21 days after feeding): 0%
mortality at 100 ppm (M. incognita): 20%
mortality at 50 ppm (Caenorhabditis elegans; [6]): 14%
mortality at 50 ppm (Caenorhabditis elegans; 24 hr, read-out: Mortality (%)): 16%
mortality at 50 ppm (Caenorhabditis elegans; [7]): 34%
mortality at 50 ppm (Caenorhabditis elegans; 48 hr, read-out: Mortality (%)): 36%
mortality at 50 ppm (Caenorhabditis elegans; [8]): 56%
mortality at 50 ppm (Caenorhabditis elegans; 72 hr, read-out: Mortality (%)): 58%
mortality at 50 ppm (Caenorhabditis elegans; [9]): 74%
mortality at 50 ppm (Caenorhabditis elegans; [10]): 76%
mortality at 50 ppm (Caenorhabditis elegans; [11]): 98%
mortality at 50 ppm (Caenorhabditis elegans; [12]): 98%
mortality at 100 ppm (Caenorhabditis elegans; [6]): 18%
mortality at 100 ppm (Caenorhabditis elegans; 24 hr, read-out: Mortality (%)): 20%
mortality at 100 ppm (Caenorhabditis elegans; [7]): 43%
mortality at 100 ppm (Caenorhabditis elegans; 48 hr, read-out: Mortality (%)): 45%
mortality at 100 ppm (Caenorhabditis elegans; [8]): 68%
mortality at 100 ppm (Caenorhabditis elegans; 72 hr, read-out: Mortality (%)): 69%
mortality at 100 ppm (Caenorhabditis elegans; [9]): 88%
mortality at 100 ppm (Caenorhabditis elegans; [10]): 89%
mortality at 100 ppm (Caenorhabditis elegans; [11]): 100%
mortality at 100 ppm (Caenorhabditis elegans; [12]): 100%
mortality at 200 ppm (Caenorhabditis elegans; [6]): 22%
mortality at 200 ppm (Caenorhabditis elegans; 24 hr, read-out: Mortality (%)): 24%
mortality at 200 ppm (Caenorhabditis elegans; [7]): 44%
mortality at 200 ppm (Caenorhabditis elegans; 48 hr, read-out: Mortality (%)): 46%
mortality at 200 ppm (Caenorhabditis elegans; [8]): 77%
mortality at 200 ppm (Caenorhabditis elegans; 72 hr, read-out: Mortality (%)): 77%
mortality at 200 ppm (Caenorhabditis elegans; [9]): 97%
mortality at 200 ppm (Caenorhabditis elegans; [10]): 97%
mortality at 200 ppm (Caenorhabditis elegans; [11]): 100%
mortality at 200 ppm (Caenorhabditis elegans; [12]): 100%
mortality at 300 ppm (Caenorhabditis elegans; [6]): 20%
mortality at 300 ppm (Caenorhabditis elegans; 24 hr, read-out: Mortality (%)): 22%
mortality at 300 ppm (Caenorhabditis elegans; [7]): 52%
mortality at 300 ppm (Caenorhabditis elegans; 48 hr, read-out: Mortality (%)): 53%
mortality at 300 ppm (Caenorhabditis elegans; [8]): 81%
mortality at 300 ppm (Caenorhabditis elegans; 72 hr, read-out: Mortality (%)): 83%
mortality at 300 ppm (Caenorhabditis elegans; [9]): 100%
mortality at 300 ppm (Caenorhabditis elegans; [10]): 99%
mortality at 300 ppm (Caenorhabditis elegans; [11]): 100%
mortality at 300 ppm (Caenorhabditis elegans; [12]): 100%
mortality at 400 ppm (Caenorhabditis elegans; [6]): 23%
mortality at 400 ppm (Caenorhabditis elegans; 24 hr, read-out: Mortality (%)): 25%
mortality at 400 ppm (Caenorhabditis elegans; [7]): 58%
mortality at 400 ppm (Caenorhabditis elegans; 48 hr, read-out: Mortality (%)): 59%
mortality at 400 ppm (Caenorhabditis elegans; [8]): 90%
mortality at 400 ppm (Caenorhabditis elegans; 72 hr, read-out: Mortality (%)): 90%
mortality at 400 ppm (Caenorhabditis elegans; [9]): 100%
mortality at 400 ppm (Caenorhabditis elegans; [10]): 100%
mortality at 400 ppm (Caenorhabditis elegans; [11]): 100%
mortality at 400 ppm (Caenorhabditis elegans; [12]): 100%
LC50 (ppm) (Caenorhabditis elegans; Day 2): 237 ppm
LC50 (ppm) (Caenorhabditis elegans; Day 3): 38 ppm
LC50 (ppm) (Caenorhabditis elegans; Day 5): 27 ppm
LC50 (ppm) (Caenorhabditis elegans; Day 7): 3 ppm
LC50 (ppm) (Drosophila melanogaster; 48 hr): 125.86 ppm
LC50 (ppm) (Drosophila melanogaster; 72 hr): 72.82 ppm
